Legend:
EAE mice = assay: ICV delivery in chronic EAE, Biozzi mouse model of Multiple Sclerosis; format: in vivo, Biozzi ABH mice; settings: ICV mini-osmotic pump, 5 μg per day, vs vehicle-treated EAE mice
Source text: The Biozzi mouse model of Multiple Sclerosis: Biozzi ABH mice have genetic tendency to develop autoimmune diseases, and are used for many autoimmune models. The experimental autoimmune model in Biozzi mice is induced by immunization with spinal cord homogenate. Typically, mice develop an acute relapse, followed by remission, and after that a relapsing and progressive course of disease, resembling human multiple sclerosis (MS). […] In the chronic phase of EAE there are typical immunopathological features resembling progressive MS, such as meningeal infiltrates and development of tertiary lymphoid-like tissue, partial closing of the blood-brain-barrier, and reduction in lesion activity with increase in astrogliosis. Therefore, this model is considered one of the most clinical-relevant experimental models of MS. EAE was induced in Biozzi mice. Briefly, mice were inoculated subcutaneously at day 0 and day 7 in both hind flanks with 1 mg spinal cord homogenate emulsified in complete Freund's adjuvant supplemented with 3 μg M. Butyricum. Mice were monitored and scored daily in a blinded manner as follows: 0=normal, 1=limp tail, 2=impaired righting reflex, 3=hind-limb paresis; 4=complete hind-limb paralysis and 5=moribund/death. 10-14 days after the second relapse the mice were divided into two prospective experimental groups. […]

MEK-ERK signalling = settings: mouse; earlier stage of differentiation of the oligodendroglial lineage; cited from earlier work
hESC-derived pre-OL = assay: Terminal maturation of hESC-derived pre-oligodendrocytes into MBP+ oligodendrocytes (MBP immunostaining); format: cell-based, human; settings: pre-OL on laminin
Experimental: Human ESCs (HES1 passages 21 to 42 with a normal karyotype) were cultured as described. hESC colonies were picked up by means of collagenase IV (1 mg/ml; GIBCO-BRL, Gaithersburg, MD) and placed into ultralow adherent culture dishes (Thermo Scientific Nunc HydroCell) to favor sphere aggregation. Spheres were cultured in NDM media consisting of Neural Differentiation Medium (Gibco) and N2B27 supplements with 20 ng/ml FGF-2. Spheres were first patterned with the dual-SMAD inhibitors LDN193189 (1 μM, Cayman Chemical, Ann Arbor, MI) and SB431542 (5 μM, SB; PeproTech Inc, Rocky Hill, NJ) until day 4 when SB431542 was withdrawn and the spheres were further cultured for additional 10 days in the presence LDN193189 and FGF-2. At day 14, the spheres were caudalized and ventralized using 0.1 μM all-trans retinoic acid and 0.5 μM purmorphamine, respectively (PeproTech Inc, Rocky Hill, NJ). At day 35, spheres were switched to modified SATO media, consisting of DMEM/F12, 10 ng/ml biotin, 60 ng/ml progesterone, 16 μg/ml putrescine, 20 μg/ml human insulin, 100 μg/ml apotransferrin, 5 ng/ml sodium selenite, 100 μg/ml bovine serum albumin (BSA), 60 μg/ml N-acetyl cysteine and 2 μg/ml forskolin. The medium was further supplemented with 20 ng/ml FGF-2, 0.5 μM Purmorphamine, 5 ng/ml NT3 and 200 nM ascorbic acid. Media was changed every 3 days for 6-7 weeks. For differentiation, spheres were dissected into small clusters mechanically and plated onto poly-D-lysine/laminin-coated plates and cultured in modified SATO media supplemented with 5 ng/ml NT3, 10 ng/ml IGF-1, 60 ng/ml T3, 100 ng/ml noggin and 200 nM ascorbic acid for 2-4 weeks. […] To block MEK/ERK signaling, PD0325901 (PeproTech Inc, Rocky Hill, NJ) was added freshly every other day to the cells to a concentration of 0.25-0.5 μM. […]

[1] = tested on: hESC-derived pre-OLs (MBP reporter cells); assay: Maturation of MBP-Tomato reporter pre-OLs under normoxia or after 48 h hypoxia (in vitro white matter injury model); format: cell-based, human; settings: for proportion of MBP Tomato co-expressing oligodendrocytes: PD0325901 0.25 μM alone or combined, vs vehicle (FIG. 13); for proportion of MBP+ Tomato+ mature oligodendrocytes: noggin 100 ng/ml, DAPT 1 μM
Experimental: Human ESCs (HES1 passages 21 to 42 with a normal karyotype) were cultured as described. hESC colonies were picked up by means of collagenase IV (1 mg/ml; GIBCO-BRL, Gaithersburg, MD) and placed into ultralow adherent culture dishes (Thermo Scientific Nunc HydroCell) to favor sphere aggregation. Spheres were cultured in NDM media consisting of Neural Differentiation Medium (Gibco) and N2B27 supplements with 20 ng/ml FGF-2. Spheres were first patterned with the dual-SMAD inhibitors LDN193189 (1 μM, Cayman Chemical, Ann Arbor, MI) and SB431542 (5 μM, SB; PeproTech Inc, Rocky Hill, NJ) until day 4 when SB431542 was withdrawn and the spheres were further cultured for additional 10 days in the presence LDN193189 and FGF-2. At day 14, the spheres were caudalized and ventralized using 0.1 μM all-trans retinoic acid and 0.5 μM purmorphamine, respectively (PeproTech Inc, Rocky Hill, NJ). At day 35, spheres were switched to modified SATO media, consisting of DMEM/F12, 10 ng/ml biotin, 60 ng/ml progesterone, 16 μg/ml putrescine, 20 μg/ml human insulin, 100 μg/ml apotransferrin, 5 ng/ml sodium selenite, 100 μg/ml bovine serum albumin (BSA), 60 μg/ml N-acetyl cysteine and 2 μg/ml forskolin. The medium was further supplemented with 20 ng/ml FGF-2, 0.5 μM Purmorphamine, 5 ng/ml NT3 and 200 nM ascorbic acid. Media was changed every 3 days for 6-7 weeks. For differentiation, spheres were dissected into small clusters mechanically and plated onto poly-D-lysine/laminin-coated plates and cultured in modified SATO media supplemented with 5 ng/ml NT3, 10 ng/ml IGF-1, 60 ng/ml T3, 100 ng/ml noggin and 200 nM ascorbic acid for 2-4 weeks.
To block Notch signaling, the γ-secretase inhibitor, DAPT (N—[N-(3,5-difluorphenacetyl)-L-alanyl]-S-phenylglycine t-butyl ester), PeproTech Inc, Rocky Hill, NJ) was added freshly every other day to the cells to a concentration of 1 μM. To block MEK/ERK signaling, PD0325901 (PeproTech Inc, Rocky Hill, NJ) was added freshly every other day to the cells to a concentration of 0.25-0.5 μM.
Immunocytochemistry: Cells were fixed in 4% paraformaldehyde for 20 min, washed with PBS, blocked in blocking solution (5% donkey serum, 0.2% Triton X-100 in PBS) for 1 hour, and incubated for 2 hours with primary antibodies mouse anti-Olig2 (Millipore Corporation diluted 1:150) and mouse anti-Nkx-2.2 (Developmental Studies Hybridoma Bank, diluted 1:100). After washing, cells were incubated with secondary antibody, donkey anti-mouse Alexa-488 (Life Technologies, Inc.), for 1 hour before being mounted in VECTASHIELD™ mounting medium. For O4 staining, cells were blocked in blocking solution (5% donkey serum in DMEM/F12) for 1 hour, and incubated with mouse-anti O4 antibody (R&D System, diluted 1:100) for 2 hours. After washing, cells were fixed in 4% paraformaldehyde for 20 min, and incubated with secondary antibody, donkey anti-mouse Alexa-488 or Alexa-555 (Life Technologies, Inc.), for 1 hour before being mounted in VECTASHIELD™ mounting medium. For MBP staining, after fixation cells were washed with PBS+0.01% saponin, blocked in blocking solution (5% goat serum, 0.01% saponin in DMEM/F12) for 1 hour, and incubated with rat anti-MBP antibody (R&D System 1:100) for 2 hours. After washing, cells were incubated with secondary antibody, goat anti-rat antibody (Jackson laboratories, 1:100) for 1 hour before being mounted in VECTASHIELD™ mounting medium.
Plasmid construction and gene targeting: Oligonucleotide encoding the MBP-targeting sgRNA was custom ordered (hy.labs), hybridized and ligated into the BbsI restriction site of pX330-U6-Chimeric-BB-CBh-hSpCas9 vector (Addgene #42230). Homology arms from the human mbp locus were amplified from genomic DNA isolated from HES1 cells by nested PCR (5′ arm: Chr18:74692386-74693344, 3′ arm: Chr18:74691209-74692367). The PCR products was digested and ligated into PNTKV-2A-Tomato donor plasmid. Correct construction of each expression cassette was verified by sequence analysis. […]

[2] = tested on: oligodendrocyte progenitors (OLPs) isolated from mouse cerebral cortex; settings: cited from earlier work
[3] = tested on: oligodendroglial differentiation; settings: cited from earlier work
[4] = hypoxia 48 hours, then 3 weeks normoxia, vs vehicle

O=C(NOC[C@H](O)CO)c1ccc(F)c(F)c1Nc1ccc(I)cc1F [PD0325901]
disease course: mean cumulative score of disease (EAE mice; 28 days from implantation): significantly milder | disease course: final clinical score at day of termination (EAE mice; 28 days): significantly milder | oligodendrocyte differentiation (MEK-ERK signalling): augment oligodendrocyte differentiation | culture period after which maturation was obtained (hESC-derived pre-OL): 1 week | branching of processes of MBP+ cells (hESC-derived pre-OL; 1 week): enhanced branching | proportion of MBP mature oligodendrocytes / maturation into MBP+ cells (hESC-derived pre-OL; DAPT+noggin 2 weeks, PD0325901 1 week, vs vehicle): highly significant augmentation | proportion of MBP Tomato co-expressing oligodendrocytes ([1]; hypoxia exposed, one week following hypoxia): increased proportion | MBP+ Tomato+-expressing oligodendrocytes ([1]; hypoxia-exposed cultures, 0.25 μM or 0.5 μM for one week): marked increase | branching of processes of MBP+ Tomato+ oligodendrocytes ([1]; hypoxia-exposed cultures, one week): marked increase | number of MBP Tomato co-expressing oligodendrocytes ([1]; hypoxia-exposed, 0.25 μM, one week following hypoxia, vs vehicle (FIG. 11)): increased number | number of MBP Tomato co-expressing oligodendrocytes ([1]; hypoxia-exposed, 0.5 μM, one week following hypoxia, vs vehicle (FIG. 12)): increased number | proportion of MBP+ Tomato+ oligodendrocytes ([1]; normoxia, 0.25 μM or 0.5 μM for one week, vs vehicle): significant increase | number of MBP Tomato co-expressing oligodendrocytes ([1]; normoxia, 0.25 μM, one week, vs vehicle (FIG. 11)): increased number | number of MBP Tomato co-expressing oligodendrocytes ([1]; normoxia, 0.5 μM, one week, vs vehicle (FIG. 12)): increased number | proportion of MBP Tomato co-expressing oligodendrocytes ([1]; normoxia, one week): increased proportion | branching of the processes of MBP+ oligodendrocytes ([1]; normoxia, one week): significantly enhanced | effect on pre-OLs maturation compared with noggin or DAPT ([1]; one week of treatment vs two-three weeks with noggin and/or DAPT): more prominent

C[C@H](NC(=O)Cc1cc(F)cc(F)c1)C(=O)N[C@H](C(=O)OC(C)(C)C)c1ccccc1 [DAPT, N—[N-(3,5-difluorphenacetyl)-L-alanyl]-S-phenylglycine t-butyl ester]
proportion of MBP+ Tomato+ mature oligodendrocytes [1, 4]: increased differentiation | proportion of MBP+ Tomato+ mature oligodendrocytes ([1]; normoxia, 3 weeks, vs vehicle): did not increase

Oc1nc(-c2ccc(C(F)(F)F)cc2)nc2c1CSCC2 [XAV939]
differentiation of oligodendrocyte progenitors (OLPs) [2]: promote differentiation

B1: noggin: BMP antagonist (protein, UniProt Q13253 28-232, looked up)
Noggin: QHYLHIRPAPSDNLPLVDLIEHPDPIFDPKEKDLNETLLRSLLGGHYDPGFMATSPPEDRPGGGGGAAGGAEDLAELDQLLRQRPSGAMPSEIKGLEFSEGLAQGKKQRLSKKLRRKLQMWLWSQTFCPVLYAWNDLGSRFWPRYVKVGSCFSKRSCSVPEGMVCKPSKSVHLTVLRWRCQRRGGQRCGWIPIQYPIISECKCSC
oligodendroglial differentiation and maturation [3]: enhance oligodendroglial differentiation and maturation | proportion of MBP+ Tomato+ mature oligodendrocytes [1, 4]: substantial increase | proportion of MBP+ Tomato+ mature oligodendrocytes ([1]; normoxia, 3 weeks, vs vehicle): substantial increase
